Laboratory results reported in patent publication US7875282B2 (Cordis Corporation, priority 2004, dated 2011).

Legend:
[1] = tested on: human coronary artery smooth muscle cells; assay: Anti-proliferative activity in synchronized cultured cells stimulated with two percent fetal bovine serum; type: cell-based; details: for effect of addition on the anti-proliferative activity of rapamycin: added to rapamycin
Description: The multiple curves represent various concentrations of topotecan ranging from zero to three hundred nanomolar concentrations.
The multiple curves represent various concentrations of etoposide ranging from zero to eight hundred nanomolar concentrations.
The multiple curves represent various concentrations of Panzem® ranging from zero to 100 micromolar concentrations.

[2] = tested on: human smooth muscle cells; assay: PDGF-stimulated proliferation of human smooth muscle cells, cell count; type: cell-based; details: from IC50 values
Protocol: To assess the ability of cladribine to prevent cell proliferation, human smooth muscle or endothelial cells (Clonetics, Walkersville, Md.) were seeded at a density of 2000 cells/cm^2 (approximately 3600 cells/well) into each well of 12-well plates and cultured with 1.5 ml of growth medium containing five percent fetal calf serum (FCS). After twenty-four hours, the growth medium was changed and fresh medium containing 10 ng/ml platelet-derived growth factor AB (PDGF AB; LIFE Technologies), as well as various concentrations of cladribine (0.001-10,000 nM) were added with triplicate wells. Medium was replaced with fresh cladribine-containing medium after three days. On day six, cells were detached by trypsinization to yield a cell suspension, lightly centrifuged to pellet and then counted manually using a Neubauer hemocytometer system. Cell viability was assessed by trypan blue exclusion.

[3] = tested on: human coronary artery smooth muscle cells; assay: Anti-proliferative activity in non-synchronized cultured cells stimulated with two percent fetal bovine serum; type: cell-based; details: for effect of addition on the anti-proliferative activity of rapamycin: non-synchronized cells, added to rapamycin
Description: The multiple curves represent various concentrations of mycophenolic acid ranging from zero to one thousand nanomolar concentrations.
FIG. 58 illustrates, in graphical format, the anti-proliferative activity of cladribine in non-synchronized cultured human coronary artery smooth muscle cells stimulated with two percent fetal bovine serum.
The multiple curves represent various concentrations of cladribine ranging from zero to nine hundred nanomolar concentrations.

[4] = In vivo release kinetics from rapamycin, cladribine and polymer coating, porcine pharmacokinetics studies; set-up: species or system Yorkshire pigs; details: Bx Velocity stents, BMA topcoat
Description: (§1) The basecoat is applied to Bx Velocity® stents and implanted into Yorkshire pigs.
as §1

[5] = tested on: human coronary artery smooth muscle cell; assay: In vitro cell culture study of coronary artery smooth muscle cell proliferation; type: cell-based
Description: FIG. 51 is a graph of the inhibition of coronary artery smooth muscle cells by trichostatin A in a cell culture study.

tumor cell lines = details: Woo et al., J. Med Chem 2002; cited from earlier work
[6] = In vivo release kinetics from rapamycin, mycophenolic acid and polymer coating, porcine pharmacokinetics studies; details: one hundred eighty micro grams each drug

COc1cc2c(cc1O)CC[C@@H]1[C@@H]2CC[C@]2(C)[C@@H](O)CC[C@@H]12 [Panzem®, 2-methoxyestradiol]
effect of addition on the anti-proliferative activity of rapamycin [1]: increases the percent of inhibition of rapamycin alone
anti-proliferative activity ([1]; agent alone): extremely effective inhibitor of human coronary artery smooth muscle cell proliferation

Nc1nc(Cl)nc2c1ncn2[C@H]1C[C@H](O)[C@@H](CO)O1 [cladribine, 2-chlorodeoxyadenosine]
potency as inhibitor of smooth muscle cells relative to endothelial cells [2]: approximately twice
effect of addition on the anti-proliferative activity of rapamycin [3]: increases the percent inhibition of rapamycin alone
inhibition of human coronary artery smooth muscle cell proliferation ([3]; non-synchronized, two percent fetal bovine serum): completely inhibits
elution from EVA/BMA basecoat compared with rapamycin [4]: elutes more rapidly than rapamycin

CC[C@@]1(O)C(=O)OCc2c1cc1n(c2=O)Cc2cc3c(CN(C)C)c(O)ccc3nc2-1 [topotecan]
effect of addition on the anti-proliferative activity of rapamycin [1]: increases the percent inhibition of rapamycin alone

COc1cc([C@@H]2c3cc4c(cc3[C@@H](O[C@@H]3O[C@@H]5CO[C@@H](C)O[C@H]5[C@H](O)[C@H]3O)[C@H]3COC(=O)[C@H]23)OCO4)cc(OC)c1O [etoposide]
effect of addition on the anti-proliferative activity of rapamycin [1]: increases the percent inhibition of rapamycin alone

CC(/C=C/C(=O)NO)=C\[C@@H](C)C(=O)c1ccc(N(C)C)cc1 [trichostatin A]
inhibition of human coronary artery smooth muscle cell proliferation [5]: completely inhibit
IC50 ([5]; read-out: anti-proliferative IC50): ~6 nM
anti-proliferative IC50's (tumor cell lines): low nM range

COc1c(C)c2c(c(O)c1C/C=C(\C)CCC(=O)O)C(=O)OC2 [mycophenolic acid]
effect of addition on the anti-proliferative activity of rapamycin [3]: potentiates the anti-proliferative activity of rapamycin
elution from EVA/BMA basecoat compared with rapamycin [6]: elutes more completely over a shorter duration than the rapamycin
